We go through 27 substances from patent US9381208B2, “Structure and use of 5′ phosphate oligonucleotides” (Rheinische Friedrich-Wilhelms-Universität, priority 2006, dated 2016).

The test system of the data set is human primary monocytes. Put plainly: IFN-α production in human primary monocytes transfected with RNA (ELISA). The class given is cell-based. The note with it: for IFN-α induction (*100%) mean: monocytes from three donors, 36 hours after transfection, normalized to the mean induction level of all oligonucleotides (=100%); for IFN-α-inducing activity conferred by the 5′ 4-nucleotide sequence: adenosine-initiated in vitro transcribed RNA oligonucleotides, FIG. 13; for IFN-α production in monocytes: 200 ng RNA transfected, 24 hours, ELISA. On the technique in general: ELISA stands for enzyme-linked immunosorbent assay.

{ppp} = triphosphate group

Turning to “aaucggggac acacacacac acacacacac (AAUCGGGGACACACACACACACACACACAC; RNA, 5' {ppp}, backbone not given here) [SEQ ID No. 132]”, the “IFN-α induction (*100%) mean” value is recorded as 0.94 *100%.
On the same count and under the same terms, with “aaugggggac acacacacac acacacacac (AAUGGGGGACACACACACACACACACACAC; RNA, 5' {ppp}, backbone not given here) [SEQ ID No. 136]” the figure was 0.96 *100%.
Turning to “acgaggggac acacacacac acacacacac (ACGAGGGGACACACACACACACACACACAC; RNA, 5' {ppp}, backbone not given here) [SEQ ID No. 151]”, the “IFN-α-inducing activity conferred by the 5′ 4-nucleotide sequence” value (“IFN-α-inducing activity conferred” for short) is “highest IFN-α-inducing activity” and the “IFN-α induction (*100%) mean” value is given as 1.14 *100%.
In the case of “agcaggggac acacacacac acacacacac (AGCAGGGGACACACACACACACACACACAC; RNA, 5' {ppp}, backbone not given here) [SEQ ID No. 164]”, the “IFN-α-inducing activity conferred” value is “highest IFN-α-inducing activity” and the “IFN-α induction (*100%) mean” value is recorded as 1.29 *100%.
Take “auagggggac acacacacac acacacacac (AUAGGGGGACACACACACACACACACACAC; RNA, 5' {ppp}, backbone not given here) [SEQ ID No. 123]”: the “IFN-α induction (*100%) mean” value is 0.76 *100%.
Still for that read-out and setting: with “aauaggggac acacacacac acacacacac (AAUAGGGGACACACACACACACACACACAC; RNA, 5' {ppp}, backbone not given here) [SEQ ID No. 112]” the figure was 0.40 *100%.
For “auugggggac acacacacac acacacacac (AUUGGGGGACACACACACACACACACACAC; RNA, 5' {ppp}, backbone not given here) [SEQ ID No. 167]”, the “IFN-α-inducing activity conferred” value was “highest IFN-α-inducing activity” and the “IFN-α induction (*100%) mean” value is on record as 1.31 *100%.
The like results for “aaacggggac acacacacac acacacacac (AAACGGGGACACACACACACACACACACAC; RNA, 5' {ppp}, backbone not given here) [SEQ ID No. 154]” were, in that order, “highest IFN-α-inducing activity” and 1.15 *100%.
The like results for “auucggggac acacacacac acacacacac (AUUCGGGGACACACACACACACACACACAC; RNA, 5' {ppp}, backbone not given here) [SEQ ID No. 144]” were, in that order, “highest IFN-α-inducing activity” and 1.03 *100%.
With “auggggggac acacacacac acacacacac (AUGGGGGGACACACACACACACACACACAC; RNA, 5' {ppp}, backbone not given here) [SEQ ID No. 172]”, the “IFN-α-inducing activity conferred” value is “highest IFN-α-inducing activity” and the “IFN-α induction (*100%) mean” value is recorded as 1.38 *100%.
For the substance “agucggggac acacacacac acacacacac (AGUCGGGGACACACACACACACACACACAC; RNA, 5' {ppp}, backbone not given here) [SEQ ID No. 140]”, the “IFN-α-inducing activity conferred” value is “highest IFN-α-inducing activity” and the “IFN-α induction (*100%) mean” value is reported as 1.00 *100%.
On the same counts, the results for “acggggggac acacacacac acacacacac (ACGGGGGGACACACACACACACACACACAC; RNA, 5' {ppp}, backbone not given here) [SEQ ID No. 145]” are “highest IFN-α-inducing activity” and 1.03 *100%.
Consider “accaggggac acacacacac acacacacac (ACCAGGGGACACACACACACACACACACAC; RNA, 5' {ppp}, backbone not given here) [SEQ ID No. 126]”, for which the “IFN-α induction (*100%) mean” value is recorded as 0.79 *100%.
Same read-out and setting: next, “aucuggggac acacacacac acacacacac (AUCUGGGGACACACACACACACACACACAC; RNA, 5' {ppp}, backbone not given here) [SEQ ID No. 133]”: 0.94 *100%; “auuuggggac acacacacac acacacacac (AUUUGGGGACACACACACACACACACACAC; RNA, 5' {ppp}, backbone not given here) [SEQ ID No. 138]”: 0.99 *100%.
Take “auuaggggac acacacacac acacacacac (AUUAGGGGACACACACACACACACACACAC; RNA, 5' {ppp}, backbone not given here) [SEQ ID No. 171]”: the “IFN-α-inducing activity conferred” value was “highest IFN-α-inducing activity” and the “IFN-α induction (*100%) mean” value is 1.36 *100%.
As to “Lipopolysaccharide [LPS, reference compound]”, the “IFN-α production in monocytes” value is listed as “did not contribute to IFN-α production”.
Turning to “5′-PPPGGGAGACAGGAAAAAAAAAAAAAAAAAAAAA-3′ [tri-poly A]”, the “IFN-α production in monocytes” value is “equally potent”.
As to “acccggggac acacacacac acacacacac (DNA ACCCGGGGACACACACACACACACACACAC; chemistry not fully specified) [SEQ ID No. 130]”, the “IFN-α induction (*100%) mean” value is listed as 0.89 *100%.
With “aaauggggac acacacacac acacacacac (AAAUGGGGACACACACACACACACACACAC; RNA, 5' {ppp}, backbone not given here) [SEQ ID No. 146]”, the “IFN-α-inducing activity conferred” value is given as “highest IFN-α-inducing activity” and the “IFN-α induction (*100%) mean” value is reported as 1.04 *100%.
The like results for “aacgggggac acacacacac acacacacac (AACGGGGGACACACACACACACACACACAC; RNA, 5' {ppp}, backbone not given here) [SEQ ID No. 170]” were, in that order, “highest IFN-α-inducing activity” and 1.34 *100%.
In the case of “aaaaggggac acacacacac acacacacac (AAAAGGGGACACACACACACACACACACAC; RNA, 5' {ppp}, backbone not given here) [SEQ ID No. 121]”, the “IFN-α induction (*100%) mean” value is listed as 0.73 *100%.
The same measure, in the same setting: with “acuaggggac acacacacac acacacacac (ACUAGGGGACACACACACACACACACACAC; RNA, 5' {ppp}, backbone not given here) [SEQ ID No. 117]” the figure was 0.62 *100%; with “auacggggac acacacacac acacacacac (AUACGGGGACACACACACACACACACACAC; RNA, 5' {ppp}, backbone not given here) [SEQ ID No. 139]”, 0.99 *100%; with “accgggggac acacacacac acacacacac (ACCGGGGGACACACACACACACACACACAC; RNA, 5' {ppp}, backbone not given here) [SEQ ID No. 122]”, 0.73 *100%.
On to “acugggggac acacacacac acacacacac (ACUGGGGGACACACACACACACACACACAC; RNA, 5' {ppp}, backbone not given here) [SEQ ID No. 152]”, for which the “IFN-α-inducing activity conferred” value is on record as “highest IFN-α-inducing activity” and the “IFN-α induction (*100%) mean” value was 1.14 *100%.
Consider “accuggggac acacacacac acacacacac (ACCUGGGGACACACACACACACACACACAC; RNA, 5' {ppp}, backbone not given here) [SEQ ID No. 124]”, for which the “IFN-α induction (*100%) mean” value is on record as 0.76 *100%.
